Source: ChEMBL document CHEMBL3507680, “University of Dundee, Gates Library screen for HepG2 cell viability”

Experiment: Human HepG2 cell viability assay in 384 well format
Type: toxicity, cell-based
Set-up: dose 125 nL, time 70.5 hour; concentration not given beside the values
Details: HepG2 cells, read-out: Inhibition

Compound | cytotoxicity at 70.5 h [%]
O=C(c1ccco1)N1C[C@@H]2CN(c3ccccn3)C[C@@H]2C1 | -0.814
CC(C)CN1CCCn2nc(CNC(=O)CCCc3cn[nH]c3)cc2C1 | -9.85
Cc1nc(CNCC2CCCN(C(=O)OC(C)(C)C)C2)cs1 (stereo unspecified) | 27.5
CCc1nonc1NC(=O)C(C)Oc1ccccc1F (stereo unspecified) | -10.4
CCN1C(=O)C(c2ccccc2)CC12CCN(CCO)CC2 (stereo unspecified) | -13.9
COc1cccc2c1N(Cc1nc(C3CC3)no1)CCC2 | 5.14
Cc1nc(CC(=O)N2CCCC2c2nc(C(C)C)no2)cs1 (stereo unspecified) | -6.42
Cc1ncc(CC(=O)N2CCCCC2CCN2CCCC2)c(=O)[nH]1 (stereo unspecified) | -3.87
CC(C)(C)NC(=O)[C@@H]1Cc2ccccc2CN1Cc1cccs1 | 8.37
Cc1ccsc1CN1CC2(CCN(C(=O)C3CC3)CC2)CC1C(=O)O (stereo unspecified) | 10.8
CCc1ncc2c(n1)CN(c1nccc(C3CCCC3)n1)C2 | -10.9
Cc1nn(C)cc1C(C)Nc1ncnc2sccc12 (stereo unspecified) | 19.1
CN(C)Cc1nn(C)c2c1CN(C(=O)Nc1cccc(F)c1)C2 | -2.91
O=C(CS(=O)(=O)Cc1cc(Cl)c2c(c1)OCCCO2)NCC1CC1 | -3.53
Cc1ccc(-n2cnnn2)cc1NCC(=O)Nc1ccccc1Cl | -101
Cc1nnc2n1CCN(Cc1ncc(-c3ccc(Cl)cc3)o1)C2 | -11
O=C1CN(C(=O)c2cc3ccc(Br)cc3[nH]2)CCN1 | -9.95
CCN(C(=O)Nc1cc(C)on1)C(C)c1cccc(O)c1 (stereo unspecified) | -9.79
CCN(CC)S(=O)(=O)NC1CCN(c2ccc(OC)cc2)CC1 | -3.82
Cc1c[nH]c(C2COCCN2C(=O)c2n[nH]c(=O)c3ccccc23)n1 (stereo unspecified) | -13.4
CSCC(C)(O)CNC(=O)c1cc(Br)ccc1Cl (stereo unspecified) | 16.5
Cc1nc2c(C)cccc2cc1C(=O)N1CCC2(CCCNC2)C1 (stereo unspecified) | -11.4
CCOc1ccc(-c2nc(CN(C)Cc3c(C)noc3C)cs2)cc1 | 11.3
CN(Cc1nccn1C)C(=O)C1COCC(=O)N1Cc1ccccc1 (stereo unspecified) | 30.1

Compound | cytotoxicity at 70.5 h [%]
COCc1nc(C(=O)N2CCCCC2Cn2cc(C)cn2)cs1 (stereo unspecified) | 16.8
N#CCCN(CC1CCOC1)Cn1ccc(-c2ccsc2)n1 (stereo unspecified) | 0.369
COc1cc(C(=O)NCC2CCCN(Cc3ccco3)C2)ccn1 (stereo unspecified) | 16.1
CCc1nc(CN(C)C2CCN(CCNS(=O)(=O)CC)C2)no1 (stereo unspecified) | 46.2
CNC(=O)C(C)NC(=O)c1cc(COc2ccc(OC)cc2Cl)[nH]n1 (stereo unspecified) | -2.95
CN1CCN(C(=O)c2n[nH]c3c2CN(C2CCOC2)CC3)CC1 (stereo unspecified) | -10.2
CCc1noc(CN2CCN(CC(O)c3ccccc3)CC2)n1 (stereo unspecified) | -3.73
Cc1cc(C(=O)N2C[C@H](C(C)C)[C@@H](N(C)C)C2)cs1 | -2.9
COc1ccc(C2Nc3cc(Cl)ccc3C3=NCCN32)cc1OC (stereo unspecified) | 42.1
CCN(CC1CCCO1)C(=O)Nc1ccc(F)cc1OC (stereo unspecified) | -8.02
CCNc1ncc(C(=O)N[C@@H](C)[C@H](O)c2ccccc2)cn1 | -2.67
O=C(c1ccsc1)N1CCC2(CCN(Cc3ccccn3)C2=O)C1 (stereo unspecified) | 2.48
Cc1ccsc1-c1nccn1CCS(=O)(=O)N1CCCC1 | 8.18
CCOCC1CN(C(=O)c2ccnnc2)Cc2cnn(CC)c21 (stereo unspecified) | -6.52
Cc1ccc(-c2cc(N)c(=O)n(CC(=O)NCC3CCCCC3)n2)s1 | -16.2
Cc1nn(C)c2nc(N(Cc3ccccc3)CC3CCCO3)sc12 (stereo unspecified) | -11
CCc1n[nH]c(C2CN(CCCS(C)(=O)=O)CCO2)n1 (stereo unspecified) | 32.1
Cc1nn(C)c2c(N3CCN(C)CC3)nc(C3CC3)nc12 | -11.8
COc1ccc(CCNC(=O)N2CCN(C)[C@@H]3CS(=O)(=O)C[C@@H]32)cc1 | -3.24
O=C(c1nn[nH]c1Nc1cccc(Cl)c1)N1CCSCC1 | 26.2
CC(C)(C)SCCNC(=O)[C@@]12CNC[C@@H]1CN(S(C)(=O)=O)C2 | -2.8
c1coc(-c2nc(CNC3CCCNC3)no2)c1 (stereo unspecified) | 1.79
CCC(C)NC(=O)c1cccc(CNCc2csc(C(C)C)n2)c1 (stereo unspecified) | -89.9
Cc1ccc(N2CCCC(NCc3nnc4n3CCCC4)C2=O)cc1 (stereo unspecified) | -10.2

Compound | cytotoxicity at 70.5 h [%]
COCC(=O)N1CCc2cccc(S(=O)(=O)N3CCN(C)CC3)c2C1 | -2.39
Cc1nc(CN(C)C2CCN(Cc3cccc4c3OCCO4)C2)no1 (stereo unspecified) | 28.1
Cc1n[nH]c(C2CN(C(=O)CCc3ccsc3)CCO2)n1 (stereo unspecified) | -5.2
Cc1ncsc1C(=O)N1CCCC(c2noc(C(C)C)n2)C1 (stereo unspecified) | 0.861
Cc1nc(C2CCCN2CC(=O)N(C)Cc2ccsc2)no1 (stereo unspecified) | 12.6
Cc1ncnc2c1CCN(Cc1ccccn1)CC2 | -4.71
Cn1ccnc1CN1CCN(CC(O)c2cc(F)ccc2F)CC1 (stereo unspecified) | -10.1
CC(=O)N1CCC(C(=O)c2cnn(-c3ccccc3)c2N)C1 (stereo unspecified) | -7.91
CN(C)C(=O)COCc1nnc2n1CCN(Cc1ccsc1)C2 | 0.94
CC(C)C(C)(O)CNC(=O)Nc1ccccn1 (stereo unspecified) | -1.52
CCCn1ncnc1C(C)NC(=O)C1CCN(C(=O)C2CC2)CC1 (stereo unspecified) | -3.95
COc1ccc(C(=O)CCc2nc(C3CC3)no2)cc1F | -13.6
Cn1cnc2c1C(COCc1cccnc1)N(Cc1ccccc1)CC2 (stereo unspecified) | 2.08
CC(C)N(C)C(=O)C1CSCN1S(=O)(=O)c1ccccc1F (stereo unspecified) | -9.21
O=C(Cc1ccc2c(c1)OCCO2)N1CCCC(n2cccn2)C1 (stereo unspecified) | -19.6
CC(C)N1CCC(Cc2cncc(-c3cc(F)ccc3C(=O)O)n2)C1 (stereo unspecified) | -6.34
CNC(=O)C1CCN(c2nc3nc[nH]c(=O)c3s2)CC1 | -16.7
Cc1cccc(C)c1C(=O)N1C[C@@H](CN2CCOCC2)[C@@H](CO)C1 | -7.08
Cc1ccc(CC(NC(=O)CN(C)C2CC2)c2ccccn2)cc1 (stereo unspecified) | -1.04
O=C(c1coc(-c2ccccc2)n1)N1CCS(=O)(=O)CC1 | -3.26
Cc1cnc(CN2CCCC2c2noc(C)n2)cn1 (stereo unspecified) | 5.04
Cc1nc(C)n(CCNS(=O)(=O)NCc2ccccc2)n1 | -15.5
CC(C)c1nc(CC(=O)N(C)Cc2ccc3c(c2)OCO3)cs1 | -6.29
COCC1CN(C(=O)c2ccc(C)o2)Cc2nccn2C1 (stereo unspecified) | 14.4

Compound | cytotoxicity at 70.5 h [%]
Cc1sc(NS(=O)(=O)c2ccccc2)nc1C(=O)NC1CC1 | -1.95
CCCc1n[nH]c(C2CN(C(=O)CCCn3ccnc3C)CCO2)n1 (stereo unspecified) | 4.08
CC1CCCN(Cc2ccnc(-c3cccnc3)n2)C1 (stereo unspecified) | -13
CCOc1ccc(Cc2c(O)nc(SC)n(-c3ccccc3)c2=O)cc1 | -2.28
CCc1noc(CNC2CCCN(Cc3noc(C4CC4)n3)C2)n1 (stereo unspecified) | -5.98
CCS(=O)(=O)N1CCc2ncnc(OC)c2CC1 | -5.9
CCn1c(=O)c2cc(S(N)(=O)=O)ccc2n(CC)c1=O | -2.07
CSc1nsc(NC(=O)c2cc(C3CC3)nn2C)n1 | -6.09
Fc1cccc(-c2nc(CN3CCCCC3Cn3cncn3)co2)c1 (stereo unspecified) | -15.4
c1cncc(CN2CCn3cc(Cn4cccn4)nc3C2)c1 | -7.42
CCN(CC)S(=O)(=O)N1CCCC1c1nnc2n1CCN(C)CC2 (stereo unspecified) | -10.9
CC(=O)c1c(O)n(C)c2ccc(C)cc12 | 1.11
COc1cc(OC)cc(-c2noc(CN)n2)c1 | 45.5
Cc1ccc2c(n1)N(C)CCN(C(=O)NC(C)C)C2 | -6.1
CC(C)(C)c1cc(CN2CCOC(CCc3ccccc3)C2)n[nH]1 (stereo unspecified) | -9.92
O=C(c1cnc(-c2ccccc2)s1)N1CCC2(CC1)OCCO2 | 7.39
COC(=O)c1cccc(S(=O)(=O)NCC(c2ccco2)N2CCCC2)c1 (stereo unspecified) | -14.2
c1ccc(-n2cc(CN3CCCC(Cn4cncn4)C3)nn2)cc1 (stereo unspecified) | -7.1
CO[C@@H]1CO[C@@]2(CCCN(C(=O)N3CCCC3)C2)C1 | 0.448
Cc1cnc(C(=O)N2CCCC(Cn3cc(C4CC4)nn3)C2)cn1 (stereo unspecified) | -10.1
CC(=O)N1CCCn2nc(CNc3cc(C)ncn3)cc2C1 | 15
CC(C)CC(=O)N(C)Cc1nc(C(F)(F)F)cs1 | -9.65
Cc1nc(COC[C@H]2CCC[C@]23CN(CC2CC2)CCO3)cs1 | 18.4
Cc1ncsc1C(=O)NC1CCN(Cc2ccc(C(F)(F)F)cc2)CC1 | 26.5

Compound | cytotoxicity at 70.5 h [%]
O=C(Cc1cccs1)N1CCCCC1c1ccn2ccnc2n1 (stereo unspecified) | -5.26
O=C1CCN(C(=O)c2ncoc2-c2ccco2)c2ncccc2N1 | -9.5
Cn1cc(CNC2CC3(CCN(S(C)(=O)=O)CC3)c3ccccc32)cn1 (stereo unspecified) | -11.7
CCOc1ncc(NC(=O)c2ccco2)c(OCC)n1 | -0.599
CS(=O)(=O)NCCCN1CCCCC1c1cc2ccccc2[nH]1 (stereo unspecified) | 33.9
Cc1nc2cc(C(=O)N(CCC#N)CC3CCCO3)ccc2[nH]1 (stereo unspecified) | -1.19
COC(C)(C)CC(C)NC(=O)Nc1ccccn1 (stereo unspecified) | -2.34
CSc1ccc(CN(CCO)Cc2nccn2C)cc1 | -3.61
O=C(c1csc(-c2cccs2)n1)N1CCN2CCCCC2C1 (stereo unspecified) | -2.54
Cc1ccc(CC(=O)N2CCN(CC(O)C(C)(C)C)CC2)cn1 (stereo unspecified) | 0.113
Cc1nnc(CN(C)CC(=O)NC(C)(C)c2ccc(F)cc2)n1C | -6.19
Cn1c(CO)nnc1SCc1c(F)cccc1Br | -5.69
Cc1ccoc1C(=O)N1CCC(n2cc(CO)nn2)CC1 | -3.4
O=C(CCc1nc(Cl)n[nH]1)NC1CCCN(CC2CCCCC2)C1 (stereo unspecified) | 0.564
c1ccc(CN2Cc3nccn3CC(Cn3cncn3)C2)nc1 (stereo unspecified) | 2.19
CSC(C)(C)CNC(=O)NCCC1CCN(C)CC1 | -3.38
Cc1ncc(C(=O)N2C[C@H](CO)C[C@H](CN3CCOCC3)C2)c(=O)[nH]1 | 3.07
Cc1cccc(OCCN2CCN(Cc3cnn(CCO)c3)CC2)c1 | -1.35
CN(C)C(=O)CN1CCC(c2cccc(Cc3ccc(F)cc3)n2)CC1 | 15.8
Cc1ccsc1CN1CCc2nc3ccsc3c(=O)n2CC1 | -4.51
